Measured values from patent publication US12053480B2, “Methods and pharmaceutical compositions for treating peripheral demyelinating diseases” (INSERM (INSTITUT NATIONAL DE LA SANTE ET DE LA RECHERCHE …, priority 2015, dated 2024).
Read-outs that look alike come from different tables or passages of the source.

What was measured:
mSC mitochondria = assay: Mitochondrial motility imaging (mito-dsRed2) in mSC of mouse sciatic nerve; format: in vivo; conditions: after nerve crush
Method: (§1) Mice were anesthetized with isoflurane inhalation and placed under a Stemi2000 microscope (Zeiss). Incision area was shaved and cleaned using betadine solution. After incision, the gluteus superficialis and biceps femoris muscles were separated to reveal the cavity traversed by the sciatic nerve. The nerve was lift out using spatula and a thin glass needle filled with viral solution (8 μl) was introduced into the nerve with a micromanipulator. This solution was injected over 30 min with short pressure pulses using a Picospritzer III (Parker Hannifin) coupled to a pulse generator. After injection, the nerve was replaced into the cavity, the muscles were readjusted, and the wound was closed using clips (for further details see Gonzalez et al., 2014^3).
TRO19622 drug (Tocris bioscience, Ref. 2906) was diluted in ethanol to 20 mM and then, the solution was diluted in sterile PBS to 20 μM. TRO19622 treatments were realized by 3 mg/kg intraperitoneal (IP) injections of 20 mM solution or by intra sciatic nerve injections of 2 μl of drug solution 2 μM using a Hamilton syringe or a glass needle in sterile conditions 30 minutes before multiphoton image acquisitions or immunohistochemistry and demyelination studies respectively. Methyl jasmonate drug (Sigma-Aldrich, Ref. 392707) was diluted in 1 ml of sterile PBS to 1M or 3M. Methyl jasmonate treatments were realized by intra sciatic nerve injections of 1 μl of drug solution using a glass needle and micromanipulator in sterile conditions following the same virus injections procedure (see in vivo virus injection in the sciatic nerve method) two hours before multiphoton image acquisition. […] All drug concentrations were previously evaluated by Bordet et al, 2007^5; Goldin et al, 2008^6; Sharov et al, 2007^7.
First injected mouse was anesthetized with 5% of isoflurane a 1.5% of oxygen into the anesthesia system box (World Precision Instruments, Ref. EZ-B800) for 5 minutes. Anesthesia controls were realized^8. Then, mouse was placed in anesthesia mask and the incision area was shaved and cleaned with betadine and ethanol 70% solution. Incision was realized using a scalpel and the skin was retracted using forceps in order to expose the gluteus superficialis and bleeps femoris muscles. Next, the connective tissue that connects both muscles was cut and the sciatic nerve was gently lifted out using a spatula. A flexible bridge was slide below sciatic nerve and it was placed into a plastic first pool fixed to the bridge. Mouse was placed under the multiphoton microscope, the bridge was fixed using magnetic brackets to avoid physiological movement and mouse legs were fixed using clippers. Microscope dark box temperature is controlled to 37° C. during all time-lapse imaging. Finally, a second pool was fixed to the first pool using a drop of agarose low melting 3% (Promega, Ref. V2111) in Leibovitz's L15 medium (Gibco Life Technologies) and filled with deionized water to immerse the objectives 20× or 63× (Carl Zeiss Microscopy).
All time-lapse images were obtained with a multiphoton microscope Zeiss LSM 7 MP OPO. Mitochondria motility images were acquired by time-lapse recording of one image every five minutes during five hours at 920 nm. GCaMP2 and SypHer probe images were acquired by time-lapse recording of one image every fifteen minutes during five hours at 985 nm. Images were acquired to constant 1% of laser intensity to 100 msec of acquisition time with 512×512 resolution and 10 images of z-stack of 20 μm. […]

CMT1A rats = assay: Sciatic nerve morphometry (toluidine blue, electron microscopy) in CMT1A rats; format: in vivo, rat
Method: (§2) Sciatic nerves of 20 and 28 weeks old diabetic mice or 16 and 24 weeks old CMT1A rats treated with TRO19622 drug or PBS were fixed for 20 min in situ with 4% PFA and 2.5% glutaraldehyde, in 0.1 M phosphate buffer (pH7.3). Then nerves were removed and postfixed overnight in the same buffer.
(§3) After washing 30 min in 0.2M PBS phosphate buffer, the nerves were incubated with 2% osmic acid in 0.1M phosphate buffer for 90 minutes at room temperature. Then, samples were washed in 0.2M PBS phosphate buffer, dehydrated using ethanol gradient solutions and embedded in epoxy resin. For electron microscopy of sciatic nerves, ultrathin (70 nm) cross-sections were cut and stained with 1% uranylacetate solution and lead-citrate and analyzed using a HITACHI H7100 electron microscope at the ‘Centre des Resources en Imagerie Cellulaire’ (CRIC) (for further details see Cotter et al., 2010^9). Semi-thin cross-sections (0.7 μm) were cut using a microtome (Leica, RM 2155) with a diamond knife (Histo HI 4317, Diatome). Sections were stained with blue of toluidine and observed using light microscope. G-ratio was determined using GRatioCalculator plugin of Image J. At less 200 fibers per animal were analysed.
While demyelinating diabetes peripheral neuropathy is a commonly acquired disease, demyelination is also the characteristic feature of a large number of inherited diseases called Charcot-Marie-Tooth diseases (CMT). We therefore sought to test whether the inhibition of VDAC1 function could prevent demyelination in these diseases. We choose CMT1A rat strain^42 as this is arguably the most representative animal model of Charcot-Marie-Tooth disease, mimicking CMT1A the most prevalent CMT in humans^10. Twelve weeks old CMT1A rats were daily treated with TRO19622 for 15 or 30 days and one day or two months after treatment, we analyzed MAPK demyelination pathways by western blot. […] However, these effects disappeared two months after treatment. Then we analyzed phospho-c-jun activation in mSC using immunohistochemistry. […] Next, we measured Schwann cell demyelination and g-ratio by toluidine blue staining on semi-thin sciatic nerve sections and on thin sections using electron microscopy.

VDAC1 = target: T1, VDAC1 (Mus musculus, UniProt Q60932); assay: Fluorescent probe imaging of mSC mitochondria in diabetic db/db mice, basal conditions; format: in vivo
T1 construct: strongly expressed in mSC mitochondria; from tissue; host or cells: myelinating Schwann cells (mSC) of the sciatic nerve of living mice (wild type; db/db and +/db in A10)
T1 sequence (Q60932 14-296): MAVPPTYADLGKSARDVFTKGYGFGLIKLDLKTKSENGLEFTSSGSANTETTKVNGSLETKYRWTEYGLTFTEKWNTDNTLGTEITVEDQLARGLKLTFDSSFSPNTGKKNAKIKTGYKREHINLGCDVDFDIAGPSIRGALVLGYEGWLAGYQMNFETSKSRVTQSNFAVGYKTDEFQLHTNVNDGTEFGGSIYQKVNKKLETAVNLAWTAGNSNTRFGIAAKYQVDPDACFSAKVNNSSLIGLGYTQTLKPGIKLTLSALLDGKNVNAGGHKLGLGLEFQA
Method: as §1
TRO19622 drug (Tocris bioscience, Ref. 2906) was diluted in ethanol to 20 mM and then, the solution was diluted in sterile PBS to 20 μM. TRO19622 treatments were realized by 3 mg/kg intraperitoneal (IP) injections of 20 mM solution or by intra sciatic nerve injections of 2 μl of drug solution 2 μM using a Hamilton syringe or a glass needle in sterile conditions 30 minutes before multiphoton image acquisitions or immunohistochemistry and demyelination studies respectively. […] All drug concentrations were previously evaluated by Bordet et al, 2007^5; Goldin et al, 2008^6; Sharov et al, 2007^7. […]

diabetic (db/db) mice = assay: Sciatic nerve myelin morphometry (toluidine blue, TEM) in diabetic mice; format: in vivo, mouse; conditions: diabetic mice treated daily for one month
Method: as §2
as §3, with “Semi-thin cross-sections (0.7 μm) were cut using a microtome (Leica, RM 2155) with a diamond knife (Histo HI 4317, Diatome). Sections were stained with blue of toluidine and observed using light microscope.” left out
To go further 16-weeks-old diabetic and control mice were treated daily with vehicle or TRO19622 for one month. One day and two months after drug treatment, myelin was evaluated in the sciatic nerve using toluidine blue staining and transmission electron microscopy (TEM) to measure the g-ratio (axon diameter on total myelinated fiber diameter).

CC(C)CCC[C@@H](C)[C@H]1CC[C@H]2[C@@H]3CCC4=C/C(=N\O)CC[C@]4(C)[C@H]3CC[C@]12C [TRO19622, (NZ)—N-[(8S,9S,10R,13R,14S,17R)-10,13-dimethyl-17-[(2R)-6-methylheptan-2-yl]-1,2,6,7,8,9,11,12,14,15,16,17-dodecahydrocyclopenta[a]phenanthren-3-ylidene]hydroxylamine]
changes induced by nerve crush in mitochondrial motility not abrogated (mSC mitochondria): 20% | g-ratio of myelinated fibers (CMT1A rats): significant increase | number and diameter of axons in the nerve (CMT1A rats): increased | number of demyelinated fibers (CMT1A rats): reduction | g-ratio of myelinated fibers (CMT1A rats; listed as TRO16922): restored a correct g-ratio | number and diameter of axons in the nerve (CMT1A rats; listed as TRO16922): rescued axonal loss | mitochondrial motility (VDAC1): increased | mitochondrial pH (VDAC1): significantly reduced | axon number and diameter (diabetic (db/db) mice): No differences | g-ratio (diabetic (db/db) mice; compared to vehicle): significant decrease
